This note sets out measurements from PMC9109600 (ACS chemical biology, 2021).

The target in this test is T1, Guanine deaminase (GDA) (Homo sapiens, UniProt Q9Y2T3).
T1 sequence (Q9Y2T3 1-454): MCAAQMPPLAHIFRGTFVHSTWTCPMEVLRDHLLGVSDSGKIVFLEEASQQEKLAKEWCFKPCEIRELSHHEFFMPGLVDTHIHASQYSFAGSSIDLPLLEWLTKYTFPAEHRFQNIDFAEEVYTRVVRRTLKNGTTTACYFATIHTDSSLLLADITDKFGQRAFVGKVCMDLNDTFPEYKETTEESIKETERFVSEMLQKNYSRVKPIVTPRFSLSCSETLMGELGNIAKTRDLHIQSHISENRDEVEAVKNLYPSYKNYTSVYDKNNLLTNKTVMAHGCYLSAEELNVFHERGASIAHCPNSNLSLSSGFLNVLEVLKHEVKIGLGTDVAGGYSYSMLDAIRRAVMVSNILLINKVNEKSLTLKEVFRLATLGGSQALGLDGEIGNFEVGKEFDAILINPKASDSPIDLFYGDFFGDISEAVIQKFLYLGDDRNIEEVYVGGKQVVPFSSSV
The experiment in a line: real-time fluorescence inhibition assay with tzGN as substrate. Type of test: biochemical.
As usually defined, the IC50 is the point on the concentration scale where inhibition reaches its midpoint. Lower therefore signals greater potency in that assay. Compound `O=C(O)c1c[nH]cn1` [ICA, 4-imidazolecarboxylic acid] came in with an IC50 of 2000 µM.
For the compound `NC(=O)c1[nH]cnc1N` [AICA, 5-aminoimidazole-4-carboxamide], the midpoint of inhibition, the IC50, lay at 100 µM.
`NC(=O)c1nscc1N` [ATCA, 4-aminoisothiazole-3-carboxamide] displayed an IC50 of 80 µM.
